biological target: Endothelial lipase (EL) (Homo sapiens (Human), UniProt Q9Y5X9); experiment: Endothelial lipase (EL) enzymatic assay with fluorescent substrate A10070 in DMPG vesicles; type: biochemical
In short: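 Vesicles prepared: A10070 dried with DMPG, resuspended in HEPES pH 8.0/NaCl/EDTA, sonicated on ice. Enzyme incubated with compound 30 min at 37° C. Reaction started with 1:10 diluted vesicles. Fluorescence (490/530 nm) followed 60 min; slope from 300–900 secs gives rate.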

Chain of Endothelial lipase (EL) (Q9Y5X9 21-500): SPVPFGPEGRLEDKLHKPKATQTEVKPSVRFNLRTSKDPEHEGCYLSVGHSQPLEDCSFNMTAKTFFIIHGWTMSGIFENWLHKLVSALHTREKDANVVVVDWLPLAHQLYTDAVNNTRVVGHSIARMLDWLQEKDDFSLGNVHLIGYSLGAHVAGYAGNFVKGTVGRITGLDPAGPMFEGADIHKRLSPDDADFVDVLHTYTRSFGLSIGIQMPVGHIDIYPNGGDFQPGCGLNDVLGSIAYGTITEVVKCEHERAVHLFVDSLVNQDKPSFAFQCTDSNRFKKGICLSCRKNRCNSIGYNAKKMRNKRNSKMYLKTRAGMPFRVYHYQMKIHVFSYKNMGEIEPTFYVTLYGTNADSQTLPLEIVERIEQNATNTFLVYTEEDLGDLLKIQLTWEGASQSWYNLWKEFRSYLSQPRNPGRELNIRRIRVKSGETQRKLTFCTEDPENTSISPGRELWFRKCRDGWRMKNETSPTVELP

Question: With `COCCS(=O)(=O)C(C(=O)NCC(=O)NC1CC1)c1nc2ccc(-c3cnc(Cl)n3C)cc2s1` (stereo not shown) [Example 345, 2-[6-(2-chloro-1-methyl-1H-imidazol-5-yl)-1,3-benzothiazol-2-yl]-N-[(cyclopropyl-carbamoyl)methyl]-2-(2-methoxyethane-sulfonyl)acetamide] as the compound, how does the IC50 read?
Answer: 135 nM

Question: How did the IC50 turn out when `COCCS(=O)(=O)C(C(=O)NCC(=O)NC1CC1)c1nc2cc(-c3cnc(C)nc3)c(F)cc2s1` (stereo not shown) [Example 346, N-[(cyclopropyl-carbamoyl)methyl]-2-[6-fluoro-5-(2-methylpyrimidin-5-yl)-1,3-benzothiazol-2-yl]-2-(2-methoxyethane-sulfonyl)acetamide] was run?
Answer: 6 nM

Question: For `COCCS(=O)(=O)C(C(=O)NCC(=O)NC1CC1)c1nc2cc(-c3ccc4[nH]c(=O)ccc4c3)c(F)cc2s1` (stereo not shown) [Example 347, N-[(cyclopropyl-carbamoyl)methyl]-2-[6-fluoro-5-(2-oxo-1,2-dihydroquinolin-6-yl)-1,3-benzothiazol-2-yl]-2-(2-methoxyethane-sulfonyl)acetamide], which IC50 is on record?
Answer: 18 nM

Question: Which IC50 does the source give for `COCCS(=O)(=O)C(C(=O)NCC(=O)NC1CC1)c1nc2cc(-c3cnc(C4CC4)nc3)c(F)cc2s1` (stereo not shown) [Example 348, N-[(cyclopropyl-carbamoyl)methyl]-2-[5-(2-cyclopropyl-pyrimidin-5-yl)-6-fluoro-1,3-benzothiazol-2-yl]-2-(2-methoxyethane-sulfonyl)acetamide] here?
Answer: 10 nM

Question: For `COCCS(=O)(=O)C(C(=O)NCC(=O)NC1CC1)c1nc2cc(-c3ccc4c(c3)CC(=O)N4)c(F)cc2s1` (stereo not shown) [Example 349, N-[(cyclopropyl-carbamoyl)methyl]-2-[6-fluoro-5-(2-oxo-2,3-dihydro-1H-indol-5-yl)-1,3-benzothiazol-2-yl]-2-(2-methoxyethane-sulfonyl)acetamide], which IC50 is on record?
Answer: 42 nM

Question: With `COCCS(=O)(=O)C(C(=O)NCC(=O)NC1CC1)c1nc2cc(-c3ccc4c(c3)C(=O)NC4)c(F)cc2s1` (stereo not shown) [Example 350, N-[(cyclopropyl-carbamoyl)methyl]-2-[6-fluoro-5-(3-oxo-2,3-dihydro-1H-isoindol-5-yl)-1,3-benzothiazol-2-yl]-2-(2-methoxyethane-sulfonyl)acetamide] as the compound, how does the IC50 read?
Answer: 18 nM

Question: With `COCCS(=O)(=O)C(C(=O)NCC(=O)NC1CC1)c1nc2cc(-c3cnnc(C)c3)c(F)cc2s1` (stereo not shown) [Example 351, N-[(cyclopropyl-carbamoyl)methyl]-2-[6-fluoro-5-(6-methylpyridazin-4-yl)-1,3-benzothiazol-2-yl]-2-(2-methoxyethane-sulfonyl)acetamide] as the compound, how does the IC50 read?
Answer: 36 nM

Question: `COCCS(=O)(=O)C(C(=O)NCC(=O)NCCOC(C)C)c1nc2cc(-c3ccc(F)nc3)c(F)cc2s1` (stereo not shown) [Example 352, 2-[6-fluoro-5-(6-fluoropyridin-3-yl)-1,3-benzothiazol-2-yl]-2-(2-methoxyethane-sulfonyl)-N-({[2-(propan-2-yloxy)ethyl]carbamoyl}methyl)acetamide] was tested. Which IC50 did it give?
Answer: 14 nM

Question: For `COCCS(=O)(=O)C(C(=O)NCC(=O)NCCOC(C)C)c1nc2cc(-c3ccn(C)c(=O)c3)c(F)cc2s1` (stereo not shown) [Example 353, 2-[6-fluoro-5-(1-methyl-2-oxo-1,2-dihydropyridin-4-yl)-1,3-benzothiazol-2-yl]-2-(2-methoxyethane-sulfonyl)-N-({[2-(propan-2-yloxy)ethyl]carbamoyl}methyl)acetamide], which IC50 is on record?
Answer: 34 nM

Question: For `COCCS(=O)(=O)C(C(=O)NCC(=O)NCCOC(C)C)c1nc2cc(-c3ccc4c(c3)CNC4=O)c(F)cc2s1` (stereo not shown) [Example 354, 2-[6-fluoro-5-(1-oxo-2,3-dihydro-1H-isoindol-5-yl)-1,3-benzothiazol-2-yl]-2-(2-methoxyethane-sulfonyl)-N-({[2-(propan-2-yloxy)ethyl]carbamoyl}methyl)acetamide], which IC50 is on record?
Answer: 24 nM

Question: Which IC50 does the source give for `COCCS(=O)(=O)C(C(=O)NCC(=O)NCCOC(C)C)c1nc2cc(-c3ccc(=O)n(C)c3)c(F)cc2s1` (stereo not shown) [Example 355, 2-[6-fluoro-5-(1-methyl-6-oxo-1,6-dihydropyridin-3-yl)-1,3-benzothiazol-2-yl]-2-(2-methoxyethane-sulfonyl)-N-({[2-(propan-2-yloxy)ethyl]carbamoyl}methyl)acetamide] here?
Answer: 36 nM

Question: For `COCCS(=O)(=O)C(C(=O)NCC(=O)NCCOC(C)C)c1nc2cc(-c3cnc(C)nc3)c(F)cc2s1` (stereo not shown) [Example 356, 2-[6-fluoro-5-(2-methylpyrimidin-5-yl)-1,3-benzothiazol-2-yl]-2-(2-methoxyethane-sulfonyl)-N-({[2-(propan-2-yloxy)ethyl]carbamoyl}methyl)acetamide], which IC50 is on record?
Answer: 55 nM

Question: `COCCS(=O)(=O)C(C(=O)NCC(=O)NCCOC(C)C)c1nc2cc(-c3ccnn3C)c(F)cc2s1` (stereo not shown) [Example 357, 2-[6-fluoro-5-(1-methyl-1H-pyrazol-5-yl)-1,3-benzothiazol-2-yl]-2-(2-methoxyethane-sulfonyl)-N-({[2-(propan-2-yloxy)ethyl]carbamoyl}methyl)acetamide] was tested. Which IC50 did it give?
Answer: 49 nM

Question: For `COCCS(=O)(=O)C(C(=O)NCC(=O)NCCOC(C)C)c1nc2cc(-c3cnnc(C)c3)c(F)cc2s1` (stereo not shown) [Example 358, 2-[6-fluoro-5-(6-methylpyridazin-4-yl)-1,3-benzothiazol-2-yl]-2-(2-methoxyethane-sulfonyl)-N-({[2-(propan-2-yloxy)ethyl]carbamoyl}methyl)acetamide], which IC50 is on record?
Answer: 60 nM

Question: `CS(=O)(=O)C(C(=O)NCC(=O)NC1CC1)c1nc2cc(-c3ccc(F)nc3)c(F)cc2s1` (stereo not shown) [Example 359, N-[(cyclopropyl-carbamoyl)methyl]-2-[6-fluoro-5-(6-fluoropyridin-3-yl)-1,3-benzothiazol-2-yl]-2-methanesulfonyl-acetamide] was tested. Which IC50 did it give?
Answer: 7 nM

Question: `CC(C)OCCNC(=O)CNC(=O)C(c1nc2cc(-c3ccc(F)nc3)c(F)cc2s1)S(C)(=O)=O` (stereo not shown) [Example 360, 2-[6-fluoro-5-(6-fluoropyridin-3-yl)-1,3-benzothiazol-2-yl]-2-methanesulfonyl-N-({[2-(propan-2-yloxy)ethyl]carbamoyl}methyl)acetamide] was tested. Which IC50 did it give?
Answer: 21 nM

Question: How did the IC50 turn out when `Cc1cc(-c2cc3nc(C(C(=O)NCC(=O)NC4CC4)S(C)(=O)=O)sc3cc2F)cnn1` (stereo not shown) [Example 361, N-[(cyclopropyl-carbamoyl)methyl]-2-[6-fluoro-5-(6-methylpyridazin-4-yl)-1,3-benzothiazol-2-yl]-2-methanesulfonyl-acetamide] was run?
Answer: 26 nM

Question: With `Cc1cc(-c2cc3nc(C(C(=O)NCC(=O)NCCOC(C)C)S(C)(=O)=O)sc3cc2F)cnn1` (stereo not shown) [Example 362, 2-[6-fluoro-5-(6-methylpyridazin-4-yl)-1,3-benzothiazol-2-yl]-2-methanesulfonyl-N-({[2-(propan-2-yloxy)ethyl]carbamoyl}methyl)acetamide] as the compound, how does the IC50 read?
Answer: 25 nM

Question: For `COC(=O)Nc1ccc(-c2cc3nc(C(C(=O)NCC(=O)NCCOC(C)C)S(C)(=O)=O)sc3cc2F)cc1F` (stereo not shown) [Example 363, methyl N-[2-fluoro-4-(6-fluoro-2-{methanesulfonyl [({[2-(propan-2-yloxy)ethyl]carbamoyl}methyl)carbamoyl]methyl}-1,3-benzothiazol-5-yl)phenyl]carbamate], which IC50 is on record?
Answer: 11 nM

Question: `COc1cc(-c2cc3nc(C(C(=O)NCC(=O)NC4CC4)S(C)(=O)=O)sc3cc2F)ccn1` (stereo not shown) [Example 364, N-[(cyclopropyl-carbamoyl)methyl]-2-[6-fluoro-5-(2-methoxypyridin-4-yl)-1,3-benzothiazol-2-yl]-2-methanesulfonyl-acetamide] was tested. Which IC50 did it give?
Answer: 12 nM

Question: Which IC50 does the source give for `CS(=O)(=O)C(C(=O)NCC(=O)NC1CC1)c1nc2cc(-c3ccc4c(c3)NC(=O)C4)c(F)cc2s1` (stereo not shown) [Example 365, N-[(cyclopropyl-carbamoyl)methyl]-2-[6-fluoro-5-(2-oxo-2,3-dihydro-1H-indol-6-yl)-1,3-benzothiazol-2-yl]-2-methanesulfonyl-acetamide] here?
Answer: 36 nM

Question: How did the IC50 turn out when `COc1ccc(-c2cc3nc(C(C(=O)NCC(=O)NC4CC4)S(C)(=O)=O)sc3cc2F)cn1` (stereo not shown) [Example 366, N-[(cyclopropyl-carbamoyl)methyl]-2-[6-fluoro-5-(6-methoxypyridin-3-yl)-1,3-benzothiazol-2-yl]-2-methanesulfonyl-acetamide] was run?
Answer: 30 nM

Question: With `CS(=O)(=O)C(C(=O)NCC(=O)NC1CC1)c1nc2cc(-c3cccnc3F)c(F)cc2s1` (stereo not shown) [Example 367, N-[(cyclopropyl-carbamoyl)methyl]-2-[6-fluoro-5-(2-fluoropyridin-3-yl)-1,3-benzothiazol-2-yl]-2-methanesulfonyl-acetamide] as the compound, how does the IC50 read?
Answer: 25 nM

Question: With `COc1nccc(-c2cc3nc(C(C(=O)NCC(=O)NC4CC4)S(C)(=O)=O)sc3cc2F)c1F` (stereo not shown) [Example 368, N-[(cyclopropyl-carbamoyl)methyl]-2-[6-fluoro-5-(3-fluoro-2-methoxypyridin-4-yl)-1,3-benzothiazol-2-yl]-2-methanesulfonyl-acetamide] as the compound, how does the IC50 read?
Answer: 17 nM

Question: Which IC50 does the source give for `Cn1cnc2ccc(-c3cc4sc(C(C(=O)NCC(=O)NC5CC5)S(C)(=O)=O)nc4cc3F)cc21` (stereo not shown) [Example 369, N-[(cyclopropyl-carbamoyl)methyl]-2-[5-fluoro-6-(1-methyl-1H-1,3-benzodiazol-6-yl)-1,3-benzothiazol-2-yl]-2-methanesulfonyl-acetamide] here?
Answer: 16 nM

Question: Which IC50 does the source give for `CS(=O)(=O)C(C(=O)NCC(=O)NC1CC1)c1nc2cc(F)c(-c3ccc4c(c3)CC(=O)N4)cc2s1` (stereo not shown) [Example 370, N-[(cyclopropyl-carbamoyl)methyl]-2-[5-fluoro-6-(2-oxo-2,3-dihydro-1H-indol-5-yl)-1,3-benzothiazol-2-yl]-2-methanesulfonyl-acetamide] here?
Answer: 5 nM

Question: Which IC50 does the source give for `CS(=O)(=O)C(C(=O)NCC(=O)NC1CC1)c1nc2cc(F)c(-c3cccc4c3CC(=O)N4)cc2s1` (stereo not shown) [Example 371, N-[(cyclopropyl-carbamoyl)methyl]-2-[5-fluoro-6-(2-oxo-2,3-dihydro-1H-indol-4-yl)-1,3-benzothiazol-2-yl]-2-methanesulfonyl-acetamide] here?
Answer: 5 nM

Question: Which IC50 does the source give for `CS(=O)(=O)C(C(=O)NCC(=O)NC1CC1)c1nc2cc(F)c(-c3ccc4c(c3)NC(=O)C4)cc2s1` (stereo not shown) [Example 372, N-[(cyclopropyl-carbamoyl)methyl]-2-[5-fluoro-6-(2-oxo-2,3-dihydro-1H-indol-6-yl)-1,3-benzothiazol-2-yl]-2-methanesulfonyl-acetamide] here?
Answer: 6 nM

Reference: patent US10173991B2, “Sulfone amide linked benzothiazole inhibitors of endothelial lipase” (BRISTOL-MYERS SQUIBB COMPANY, priority 2014, dated 2019)
